How the values of series [1] were obtained:
The changes of solubility in water of metal ion compounds were examined under coexistence of α-maltosyl α,α-trehalose and metal ion compounds. α-Maltosyl α,α-trehalose prepared by the method in Experiment 1 was used for the tests. […] Solutions prepared by dissolving the same amount of metal ion compounds only were prepared as controls. After dissolving the contents completely, all the beakers were allowed to stand at room temperature (25° C.) for 24 hours. Successively, precipitation of crystals was judged by macroscopic observation. In the case of precipitating crystals, the formed crystals were collected and analyzed for components by the conventional method.

Series [2] in a line: Hygroscopicity (deliquescence) test at relative humidity 52.8%. Format: physicochemical. As for the experimental part:
In order to compare the hygroscopicity (deliquescent property) of an associated complex of α-maltosyl α,α-trehalose and calcium chloride with that of a control, calcium chloride which is known to have a high deliquescent property, the following hygroscopicity test was carried out. The crystalline associated complexes of α-maltosyl α,α-trehalose and calcium chloride, prepared according to the method in Experiment 2-1 and calcium chloride dehydrate, were used as test samples. The moisture content (weight of moisture per one gram of the sample) of each sample was measured by conventional drying loss method. […] The amount of moisture per one gram of each sample after 1 to 7 days preservation was calculated based on the assumption that the increased amount measured to that of 0 day preservation was the amount of moisture absorbed by each sample.

Series [3] in a line: Inhibition of deterioration (browning) of L-ascorbic acid in the presence of metal ion. Format: physicochemical. The following applies: 50° C., sealed vial. How it is done: L-Ascorbic acid deteriorates rapidly by the oxidative degradation in the presence of iron and copper ions and causes browning. The effects of α-maltosyl α,α-trehalose on the phenomenon were investigated as follows. Five kinds of aqueous solutions, having respective compositions described in Table 8, were prepared. Aqueous solutions of L-ascorbic acid alone or L-ascorbic acid and metal ion compounds were used as controls. The test solutions were prepared by adding α-maltosyl α,α-trehalose to the control solutions. Ten milliliters of each of these test and control solutions were placed in different 20 ml-vials and sealed. The vials were preserved at 50° C. […] After the preservation, the degree of coloring of each solution was measured. In the case of the control solutions containing L-ascorbic acid alone, the degrees of coloring were measured at the preservation periods of 40 hours and 96 hours. The absorbance at 420 nm (within the visible light range) of each sample was measured for the degree of coloring.

Series [4] is described as follows: Inhibition of formation of calcium phosphate precipitate (solubilized calcium). Type of series: physicochemical. The following applies: calcium chloride solution with saccharide mixed with phosphate solution pH 6.8, 37° C., three hours, supernatant, n=3. As for the experimental part:
When phosphate ion is added to a calcium chloride aqueous solution, calcium phosphate, an insoluble salt, is formed from calcium ion and phosphate ion and then precipitated. Effects of α-maltosyl α,α-trehalose and other saccharides on the phenomenon were investigated as follows. A calcium chloride aqueous solution was prepared by the steps of adding 3.68 grams of calcium chloride dihydrate to deionized water to dissolve therein and adding deionized water to the solution to give a total volume of 200 ml. α-Maltosyl α,α-trehalose, prepared by the method in Experiment 1, maltotetraose, and anhydrous crystalline sucrose were used as saccharides for the test. […]
Twenty-six grams, d.s.b., of either of the saccharides for the test were added to five milliliters of the above calcium chloride solution and dissolved by adding additional deionized water. […] The calcium concentration (the solubilized calcium concentration) of each supernatant was measured using “ZEEMAN 5100”, an atomic adsorption-photometer commercialized by Perkin-Elmar Japan Co. Ltd., Kanagawa, Japan. […]
The above procedure was carried out for individual each sample (three kinds of saccharides and control) for three times and the average value of the solubilized calcium concentration was calculated.

In the case of `O.O.O.O.[Cl][Mn][Cl]` [Manganese chloride, manganese chloride tetrahydrate], the “Solubility in water in the presence of α-maltosyl α,α-trehalose” value in series [1] is reported as “remarkably improved”.
For the compound `O.O.O.O.O.O.[Cl-].[Cl-].[Sr+2]` [Strontium chloride, Strontium chloride hexahydrate], the “Precipitation of crystal, in the absence of α-maltosyl α,α-trehalose” value in series [1] (0.1 mole metal ion compound only in 30 g water, dissolved by heating, 25° C. for 24 hours, macroscopic observation) is “Precipitated”.
`O.O.[Ca+2].[Cl-].[Cl-]` [CaCl2•2H2O, calcium chloride dihydrate]: the “Moisture content/g-sample, 1 day” value in series [2] (25° C., relative humidity 52.8%, 1 day) is on record as 0.319 g. The “Moisture content/g-sample, 2 days” value in series [2] (25° C., relative humidity 52.8%, 2 days) amounted to 0.359 g. The “Moisture content/g-sample, 3 days” value in series [2] (25° C., relative humidity 52.8%, 3 days) is given as 0.405 g. Moreover, the “Moisture content/g-sample, 7 days” value in series [2] (25° C., relative humidity 52.8%, 7 days) is given as 0.430 g. In series [2] (before preservation, drying loss method), the “Moisture content/g-sample, 0 day” value is given as 0.245 g.
As to `O=C1O[C@H]([C@@H](O)CO)C(O)=C1O` [14.8 mM AsA, L-ascorbic acid], the “Degree of coloring (Abs. at 420 nm), preserved for 40 hrs” value in series [3] (40 hrs) is recorded as 0.012. For the same compound, the “Degree of coloring (Abs. at 420 nm), preserved for 96 hrs” value in series [3] (96 hrs) is reported as 0.166.
For `OC[C@H]1O[C@H](O[C@H]2[C@H](O)[C@@H](O)[C@@H](O[C@H]3[C@H](O)[C@@H](O)[C@@H](O[C@H]4[C@H](O)[C@@H](O)C(O)O[C@@H]4CO)O[C@@H]3CO)O[C@@H]2CO)[C@H](O)[C@@H](O)[C@@H]1O` (stereo partly shown) [Maltotetraose, maltotetraose], in series [4], the “Concentration of solubilized calcium (average ± standard deviation)” value was determined as 6910 ± 830 ng/mL.

These data come from US20070099869A1, “Association product of α-glycosyl α,α-trehalose with ionic metal compound” (KABUSHIKI KAISHA HAYASHIBARA SEIBUTSU KAGAKU KENKYUJO, priority 2003, published 2007).
